The record followed here is paper PMC11256303 (ACS Omega, 2024).

SMILES strings stand for the structures.

This assay addresses α-amylase. As to the kind of experiment: in vitro α-amylase inhibition. It is filed as biochemical. To be noted: read-out: alpha-amylase IC50 ± SEM, standard acarbose.
With `Cc1ccc(/C=N\c2nsc(Nc3ccc(Cl)c(Cl)c3)n2)cc1` [Compound 4], the IC50 (in general, the point on the concentration scale where inhibition reaches its midpoint) came out at 15.3 ± 0.3 µM.
For `COc1cccc(/C=N\c2nsc(Nc3ccc(Cl)c(Cl)c3)n2)c1` [Compound 5], the IC50 came out at 17.7 ± 0.3 µM.
To `Clc1ccc(/C=N\c2nsc(Nc3ccc(Cl)c(Cl)c3)n2)cc1Cl` [Compound 6] belongs 1.9 ± 0.1 µM.
To `Clc1ccc(Nc2nc(/N=C\c3ccc(Br)cc3)ns2)cc1Cl` [Compound 7] belongs 20.1 ± 0.4 µM.
For `COc1ccccc1/C=N\c1nsc(Nc2ccc(Cl)c(Cl)c2)n1` [Compound 8], the IC50 amounted to 16.2 ± 0.3 µM.
In the case of `FC(F)(F)c1cccc(Nc2nc(/N=C\c3ccc(Cl)cc3)ns2)c1` [Compound 13], the IC50 was 1.5 ± 0.1 µM.
To `FC(F)(F)c1cccc(Nc2nc(/N=C/c3ccc(Cl)cc3Cl)ns2)c1` [Compound 15, (E)-3-((2,4-dichlorobenzylidene)amino)-N-(3-(trifluoromethyl)phenyl)-1,2,4-thiadiazol-5-amine] belongs 0.8 ± 0.05 µM.
